Results from patent US8450527B2, “Amine derivative compounds for treating ophthalmic diseases and disorders” (Acucela Inc., priority 2007, dated 2013).

Experiments:
visual cycle isomerase = target: T1, visual cycle isomerase (Bos taurus, UniProt Q28175); assay: In vitro isomerase inhibition assay, bovine RPE microsome membranes; assay type: biochemical; details: inhibition of 11-cis retinol formation; values given as ranges
T1 construct: Bovine Retinal Pigment Epithelium (RPE) microsome membranes were the source of a visual cycle isomerase; from tissue; host or cells: bovine retinal pigment epithelium microsome membranes; CRALBP made in E. coli
T1 sequence (Q28175 2-533 limits assumed): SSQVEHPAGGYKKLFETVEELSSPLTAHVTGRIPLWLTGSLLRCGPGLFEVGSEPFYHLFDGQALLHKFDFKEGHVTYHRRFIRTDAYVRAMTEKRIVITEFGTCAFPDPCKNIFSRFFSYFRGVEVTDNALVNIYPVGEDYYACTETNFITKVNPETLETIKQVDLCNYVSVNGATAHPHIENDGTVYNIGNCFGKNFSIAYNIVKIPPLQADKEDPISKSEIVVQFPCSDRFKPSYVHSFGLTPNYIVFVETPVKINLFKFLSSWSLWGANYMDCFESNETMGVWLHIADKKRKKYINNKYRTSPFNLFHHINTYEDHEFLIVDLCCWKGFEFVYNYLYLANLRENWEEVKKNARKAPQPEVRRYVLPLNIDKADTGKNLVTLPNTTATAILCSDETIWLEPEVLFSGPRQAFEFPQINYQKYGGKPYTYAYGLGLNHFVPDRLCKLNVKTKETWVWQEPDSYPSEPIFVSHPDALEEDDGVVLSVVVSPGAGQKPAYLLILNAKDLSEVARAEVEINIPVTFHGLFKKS
Procedure: The capability of amine derivative compounds to inhibit the activity of a visual cycle isomerase was determined
Isomerase inhibition reactions were performed essentially as described (Stecher et al., J. Biol. Chem. 274:8577-85 (1999); see also Golczak et al., Proc. Natl. Acad. Sci. USA 102:8162-67 (2005)). Bovine Retinal Pigment Epithelium (RPE) microsome membranes were the source of a visual cycle isomerase.
Bovine RPE microsome membrane extracts were prepared according to methods described (Golczak et al., Proc. Natl. Acad. Sci. USA 102:8162-67 (2005)) and stored at −80° C. Crude RPE microsome extracts were thawed in a 37° C. water bath, and then immediately placed on ice. 50 ml crude RPE microsomes were placed into a 50 ml Teflon-glass homogenizer (Fisher Scientific, catalog no. 0841416M) on ice, powered by a hand-held DeWalt drill, and homogenized ten times upand down on ice under maximum speed. This process was repeated until the crude RPE microsome solution was homogenized. The homogenate was then subjected to centrifugation (50.2 Ti rotor (Beckman, Fullerton, Calif.), 13,000 RPM; 15360 Rcf) for 15 minutes at 4° C. The supernatant was collected and subjected to centrifugation at 42,000 RPM (160,000 Rcf; 50.2 Ti rotor) for 1 hour at 4° C. The supernatant was removed, and the pellets were suspended in 12 ml (final volume) cold 10 mM MOPS buffer, pH 7.0. The resuspended RPE membranes in 5 ml aliquots were homogenized in a glass-to-glass homogenizer (Fisher Scientific, catalog no.K885500-0021) to high homogeneity. Protein concentration was quantified using the BCA protein assay according to the manufacturer's protocol (Pierce, Rockford, Ill.). The homogenized RPE preparations were stored at −80° C.
Recombinant human apo cellular retinaldehyde-binding protein (CRALBP) was cloned and expressed according to standard methods in the molecular biology art (see Crabb et al., Protein Science 7:746-57 (1998); Crabb et al., J. Biol. Chem. 263:18688-92 (1988)). Briefly, total RNA was prepared from confluent ARPE^19 cells (American Type Culture Collection, Manassas, Va.), cDNA was synthesized using an oligo(dT)12-18 primer, and then DNA encoding CRALBP was amplified by two sequential polymerase chain reactions (see Crabb et al., J. Biol. Chem. 263:18688-92 (1988); Intres, et al., J. Biol. Chem. 269:25411-18 (1994); GenBank Accession No. L34219.1). The PCR product was sub-cloned into pTrcHis2-TOPO TA vector according to the manufacturer's protocol (Invitrogen Inc., Carlsbad, Calif.; catalog no. K4400-01), and then the sequence was confirmed according to standard nucleotide sequencing techniques. Recombinant 6×His-tagged human CRALBP was expressed in One Shot TOP 10 chemically competent E. coli cells (Invitrogen), and the recombinant polypeptide was isolated from E. coli cell lysates by nickel affinity chromatography using nickel (Ni) Sepharose XK16-20 columns for HPLC (Amersham Bioscience, Pittsburgh, Pa.; catalog no.17-5268-O2). The purified 6×His-tagged human CRALBP was dialyzed against 10 mM bis-tris-Propane (BTP) and analyzed by SDS-PAGE. The molecular weight of the recombinant human CRALBP was approximately 39 kDal.
Amine derivative compounds and control compounds were reconstituted in ethanol to 0.1 M. Ten-fold serial dilutions (10^−2, 10^−3, 10^−4, 10^−5, 10^−6 M) in ethanol of each compound were prepared for analysis in the isomerase assay.
The isomerase assay was performed in 10 mM bis-tris-propane (BTP) buffer, pH 7.5, 0.5% BSA (diluted in BTP buffer), 1 mM sodium pyrophosphate, 20 μM all-trans retinol (in ethanol), and 6 μM apo-CRALBP. The test compounds (2 μl) (final 1/15 dilution of serial dilution stocks) were added to the above reaction mixture to which RPE microsomes were added. The same volume of ethanol was added to the control reaction (absence of test compound). Bovine RPE microsomes (9 μl) (see above) were then added, and the mixtures transferred to 37° C. to initiate the reaction (total volume=150 μl). […]

[1] = tested on: retinoid nuclear receptors (RAR and RxR); assay: Retinoid nuclear receptor activity

Structure (SMILES): CCCC(O)(CCC)CCc1cccc(CCCN)c1 [Example 3, 4-(3-(3-aminopropyl)phenethyl)heptan-4-ol]
- IC50 (visual cycle isomerase): ≤ 1 µM

Structure (SMILES): NCCCc1cccc(CCC2(O)CCCCC2)c1 [Example 7, 1-(3-(3-aminopropyl)phenethyl)cyclohexanol]
- effects on retinoid nuclear receptors (RAR and RxR) [1]: did not show significant effects
- IC50 (visual cycle isomerase): ≤ 1 µM

Structure (SMILES): CCCC(O)(CCC)CCc1cccc(OCCN)c1 [Example 9, 4-(3-(2-aminoethoxy)phenethyl)heptan-4-ol]
- IC50 (visual cycle isomerase): ≤ 1 µM

Structure (SMILES): NCCOc1cccc(CCC2(O)CCCCCC2)c1 [Example 10, 1-(3-(2-aminoethoxy)phenethyl)cycloheptanol]
- IC50 (visual cycle isomerase): ≤ 1 µM

Structure (SMILES): NCCOc1cccc(CCC2(O)CCSCC2)c1 [Example 11, 4-(3-(2-aminoethoxy)phenethyl)tetrahydro-2H-thiopyran-4-ol]
- IC50 (visual cycle isomerase): ≤ 1 µM

Structure (SMILES): NCCOc1cccc(CCC2(O)CCCCC2)c1 [Example 12, 1-(3-(2-aminoethoxy)phenethyl)cyclohexanol]
- effects on retinoid nuclear receptors (RAR and RxR) [1]: did not show significant effects
- IC50 (visual cycle isomerase): ≤ 1 µM

Structure (SMILES): NCCC(O)c1cccc(CCC2(O)CCCCC2)c1 (stereo not drawn) [Example 15, 1-(3-(3-amino-1-hydroxypropyl)phenethyl)cyclohexanol]
- IC50 (visual cycle isomerase): ≤ 1 µM

Structure (SMILES): NCCC(O)c1cccc(CCC2(O)CCCCCC2)c1 (stereo not drawn) [Example 16, 1-(3-(3-amino-1-hydroxypropyl)phenethyl)cycloheptanol]
- effects on retinoid nuclear receptors (RAR and RxR) [1]: did not show significant effects
- IC50 (visual cycle isomerase): ≤ 1 µM

Structure (SMILES): NCCC(O)c1cccc(CCC2CCCC2)c1 (stereo not drawn) [Example 17, 3-amino-1-(3-(2-cyclopentylethyl)phenyl)propan-1-ol]
- IC50 (visual cycle isomerase): ≤ 1 µM

Structure (SMILES): CCCC(O)(CCC)CCc1cccc(C(O)CCN)c1 (stereo not drawn) [Example 19, 4-(3-(3-amino-1-hydroxypropyl)phenethyl)heptan-4-ol]
- IC50 (visual cycle isomerase): ≤ 1 µM

Structure (SMILES): NCCCc1cccc(CCC2(O)CCCCCC2)c1 [Example 20, 1-(3-(3-aminopropyl)phenethyl)cycloheptanol]
- effects on retinoid nuclear receptors (RAR and RxR) [1]: did not show significant effects
- IC50 (visual cycle isomerase): ≤ 1 µM

Structure (SMILES): CCCCCc1cccc(CCCN)c1 [Example 27, 3-(3-pentylphenyl)propan-1-amine]
- IC50 (visual cycle isomerase): ≤ 1 µM

Structure (SMILES): CC(C)(C)CCc1cccc(CCCN)c1 [Example 29, 3-(3-(3,3-dimethylbutyl)phenyl)propan-1-amine]
- IC50 (visual cycle isomerase): ≤ 1 µM

Structure (SMILES): NCCCc1cccc(CCCCc2ccccc2)c1 [Example 35, 3-(3-(4-phenylbutyl)phenyl)propan-1-amine]
- IC50 (visual cycle isomerase): ≤ 1 µM
